Series [1] is described as follows: Half life in human at […] by HPLC method. The class given is ADME, organism-based. Conditions: in vivo.
In series [2] the test system is Plasma. Kind of series: Plasma protein binding in human at […] by HPLC method. The class given is ADME, cell-free.
A short description of series [3]: Half life in rhesus monkey at 10 mg/kg by HPLC method. The class given is ADME, organism-based, Macaca mulatta. Further details: dose 10 mg/kg. To be noted: in vivo.

Usually half-life stands for the time needed for the level to fall by half in the phase considered.

Each structure is given as a SMILES string. A value given as a limit tells only on which side of the number the result lay.

`C[C@@H](O)[C@H]1C(=O)N2C(C(=O)O)=C(S[C@@H]3CN[C@H](C(=O)Nc4cccc(C(=O)O)c4)C3)[C@H](C)[C@H]12`: the half-life in series [1] and in series [3] was 5 h each time. In series [2], the Activity is reported as > 95%.

(Values after ChEMBL document CHEMBL1275576, “In vitro activity of tomopenem (CS-023/RO4908463) against anaerobic bacteria” (Antimicrob Agents Chemother, 2009).)
